Data as given in US20180064635A1, “COSMETIC COMPOSITION COMPRISING SLIME OF SNAIL FED WITH BERRY FRUITS AND PREPARATION METHOD THEREOF” (CREALAND CO., LTD, priority 2015, published 2018).

Experiments:
[1] = Active oxygen scavenging test (xanthine/xanthine oxidase, NBT); assay type: biochemical; details: snail slime filtrates, absorbance 540 nm
Experimental: In the active oxygen scavenging test, changes on the absorbance are measured using the oxidation of nitroblue tetrazolium (NBT) by active oxygen by using active oxygen generation upon enzymatic reaction of xanthine/xanthine oxidase (Sigma), thus the scavenging ability of the active oxygen can be confirmed.
2.4 ml of sodium carbonate (Na2CO3), 0.1 ml of xanthine (Sigma), 0.1 ml of ethylene diamine tetra acetic acid (EDTA), 0.1 ml of bovine serum albumin (BSA, Sigma), 0.1 ml of NBT, and 1 ml of the snail slime filtrates prepared in Examples 1 and 2 and Comparative Examples 1 and 2 were added, vortexing was carried out by using a vortex mixer (Type 37600 Mixer, Mini mix, USA), the mixture was left at 25° C. for 10 minutes. After 0.1 ml of xanthine oxidase was added and reacted at 25° C. for 20 minutes, the reaction was stopped by inputting 6 mM of CuCl2, and the absorbance was measured at the wavelength of 540 nm by using a microplate reader (UVT-06685, Thermo max, USA).
The control group in the active oxygen scavenging activity test was measured in the same manner by inputting third distilled water instead of the sample solution. […]
Active oxygen scavenging rate (%)=100−((absorbance of sample/absorbance of control group)×100)

[2] = Free radical scavenging test (DPPH); assay type: biochemical; details: snail slime filtrates, 37° C. 15 minutes, absorbance 540 nm
Experimental: A free radical scavenging test and a reactive oxygen scavenging test were performed in order to confirm the antioxidant effect of the snail slime filtrates prepared in Examples 1 and 2 and Comparative Examples 1 and 2, as a verifying test for a skin aging improvement effect.
The snail slime filtrates prepared in the above Examples 1 and 2 and Comparative Examples 1 and 2 were diluted with methanol in a predetermined concentration, and 1 ml of the dilution was mixed with 1 ml of a 0.1 mM 2,2-diphenyl-1-picryl-hydrazyl radical (DPPH, Sigma) solution. After the mixture leaves at 37° C. for 15 minutes, the absorbance was measured at the wavelength of 540 nm by using a microplate reader (Thermo max, USA).
In the above free radical scavenging test, the control group was measured In the same manner by inputting 1 ml of DPPH and 1 ml of methanol, and color correction values were obtained with respect to each of the sample and the control group by inputting 1 ml of methanol and 1 ml of sample.
SC50 is the concentration of the sample required to scavenge 50% of the free radicals, and the smaller value indicates the higher antioxidant activity.
Free radical scavenging rate (%)=100−((absorbance of sample/absorbance of control group)×100)

[3] = Skin moisturizing effect, capacitance measurement on flexor surface of the forearm; assay type: in vivo, human (30 females in their 20s and 30s); details: 1 wt % aqueous solution, 2.0 mg/cm2
Experimental: Measurement of moisturizing effect of snail slime filtrates prepared in Examples 1 and 2 and Comparative Examples 1 and 2 was carried out by a capacitance measurement scheme using an oil and moisture analyzer (WSK-P500U, Inforward. Inc., Japan). 1 wt % an aqueous solution of the snail slime filtrates prepared in Examples 1 and 2 and Comparative Examples 1 and 2 was compared with 1 wt % aqueous solution of hyaluronic acid sodium salt (Sigma) which is known to be excellent in a skin moisturizing effect based on various studies.
30 females in their 20s and 30s were targeted, a flexor surface of the forearm was allowed to acclimate to a constant temperature and humidity chamber (22° C. and 40-60% of relative humidity) for 20 minutes right before the test starts, and the moisture of the skin was constantly maintained. Then, after measuring the initial moisture content of an application site of each sample using the oil and moisture analyzer (WSK-P500U, Inforward. Inc., Japan), each of the samples at 2.0 mg/cm2 was applied at a different position for each examinee to minimize an error according to the flexor surface of the forearm. The skin moisture was firstly measured at time intervals of 10 minutes, 30 minutes, 50 minutes, 90 minutes, and 120 minutes after the application, and after 2 hours, the skin moisture was measured again.
Each measurement site was measured repeatedly for three times and skin moisture was calculated by the average value.

| Compound | Active oxygen scavenging rate IC50 [1] | Free radical scavenging rate SC50 [2] | Moisture content subject to time after application ([3]; 10 minutes after application) | Moisture content subject to time after application ([3]; 30 minutes after application) | Moisture content subject to time after application ([3]; 50 minutes after application) | Moisture content subject to time after application ([3]; 90 minutes after application) | Moisture content subject to time after application ([3]; 120 minutes after application) |
| --- | --- | --- | --- | --- | --- | --- | --- |
| Cc1cc(C(C)(C)C)c(O)c(C(C)(C)C)c1 [BHT] | 154 ppm | 125 ppm | – | – | – | – | – |
| hyaluronic acid sodium salt | – | – | 61.31 A.U | 58.24 A.U | 57.21 A.U | 55.87 A.U | 52.11 A.U |
